What follows are molecules tested against unphosphorylated-BTK kinase domain (UP-BTK), GST-tagged human BTK (389-659aa) (Homo sapiens (Human), UniProt Q06187) (assay: BTK kinase Lanthascreen binding assay). Details: pIC50 = negative log of the IC50 in molar; 60 minutes incubation, 50 nM Tracer 236.
How it was run: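 Tracer-displacement binding assay against the non-phosphorylated enzyme, read by Lanthascreen. Reported: pIC50.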

unphosphorylated-BTK kinase domain (UP-BTK), GST-tagged human BTK (389-659aa), sequence (Q06187 389-659): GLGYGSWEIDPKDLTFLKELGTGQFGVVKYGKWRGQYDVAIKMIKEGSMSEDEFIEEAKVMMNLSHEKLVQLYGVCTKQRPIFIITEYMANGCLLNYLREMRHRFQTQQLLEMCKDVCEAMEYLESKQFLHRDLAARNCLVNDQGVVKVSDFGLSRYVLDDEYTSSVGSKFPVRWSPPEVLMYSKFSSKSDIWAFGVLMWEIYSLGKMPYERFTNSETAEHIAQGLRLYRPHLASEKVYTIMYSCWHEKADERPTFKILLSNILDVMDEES

Structure (SMILES)	BTK_I_binding pIC50
O=C(N[C@@H]1CCCNC1)c1sc2nccc3c2c1NC(=O)N3c1ccc(Cl)c(C(F)(F)F)c1 [Example 280, (R)-5-(4-Chloro-3-(trifluoromethyl)phenyl)-4-oxo-N-(piperidin-3-yl)-4,5-dihydro-3H-1-thia-3,5,8-triazaacenaphthylene-2-carboxamide]	5.8
Cc1c(Oc2ccccc2)ccc(N2C(=O)Nc3c(C(=O)N[C@@H]4CCCN(C)C4)sc4nccc2c34)c1C [Example 281, (R)-5-(2,3-Dimethyl-4-phenoxyphenyl)-N-(1-methylpiperidin-3-yl)-4-oxo-4,5-dihydro-3H-1-thia-3,5,8-triazaacenaphthylene-2-carboxamide]	6.2

Same assay, conditions: unphosphorylated-BTK kinase domain, 50 nM Tracer 236, 60 minutes; pIC50 = negative log of the IC50 in molar

Structure (SMILES)	BTK_I_binding pIC50
Cc1cc(Oc2ccccc2)ccc1N1C(=O)Nc2c(C(=O)NCC3CCN(C)C3)sc3nccc1c23 (centres unmarked) [Example 282, 5-(2-Methyl-4-phenoxyphenyl)-N-((1-methylpyrrolidin-3-yl)methyl)-4-oxo-4,5-dihydro-3H-1-thia-3,5,8-triazaacenaphthylene-2-carboxamide]	6.2
Cc1cc(Oc2ccccc2OC(C)C)ccc1N1C(=O)Nc2c(C(=O)N[C@@H]3CCCN(C)C3)sc3nccc1c23 [Example 283, (R)-5-(4-(2-Isopropoxyphenoxy)-2-methylphenyl)-N-(1-methylpiperidin-3-yl)-4-oxo-4,5-dihydro-3H-1-thia-3,5,8-triazaacenaphthylene-2-carboxamide]	6.2
Cc1cc(OC2CCC2)ccc1N1C(=O)Nc2c(C(=O)N[C@@H]3CCCN(C)C3)sc3nccc1c23 [Example 284, (R)-5-(4-Cyclobutoxy-2-methylphenyl)-N-(1-methylpiperidin-3-yl)-4-oxo-4,5-dihydro-3H-1-thia-3,5,8-triazaacenaphthylene-2-carboxamide]	6.2

The next lines start with the values.

BTK_I_binding pIC50	Structure (SMILES)
6.2	Cc1cc(Oc2ccccc2)ccc1N1C(=O)Nc2c(C(=O)NC[C@H]3CCCN3C)sc3nccc1c23 [Example 285, (R)-5-(2-Methyl-4-phenoxyphenyl)-N-((1-methylpyrrolidin-2-yl)methyl)-4-oxo-4,5-dihydro-3H-1-thia-3,5,8-triazaacenaphthylene-2-carboxamide]
6.2	Cc1cc(Oc2cc(F)cc(F)c2)ccc1N1C(=O)Nc2c(C(=O)N[C@@H]3CCCN(C)C3)sc3nccc1c23 [Example 286, (R)-5-(4-(3,5-Difluorophenoxy)-2-methylphenyl)-N-(1-methylpiperidin-3-yl)-4-oxo-4,5-dihydro-3H-1-thia-3,5,8-triazaacenaphthylene-2-carboxamide]
6.2	C=CC(=O)N1CCC[C@@H](NC(=O)c2sc3nccc4c3c2NC(=O)N4c2cccc(C(F)(F)F)c2)C1 [Example 288, (R)—N-(1-Acryloylpiperidin-3-yl)-4-oxo-5-(3-(trifluoromethyl)phenyl)-4,5-dihydro-3H-1-thia-3,5,8-triazaacenaphthylene-2-carboxamide]
6.2	Cc1ccc(Oc2ccc(N3C(=O)Nc4c(C(=O)N[C@@H]5CCCN(C)C5)sc5nccc3c45)c(C)c2)cc1 [Example 290, (R)-5-(2-Methyl-4-(p-tolyloxy)phenyl)-N-(1-methylpiperidin-3-yl)-4-oxo-4,5-dihydro-3H-1-thia-3,5,8-triazaacenaphthylene-2-carboxamide]
6.1	Cc1cc(Oc2ccccc2)ccc1N1C(=O)Nc2c(C(=O)NCCN3CCOC[C@@H]3C)sc3nccc1c23 [Example 291, (S)-5-(2-Methyl-4-phenoxyphenyl)-N-(2-(3-methylmorpholino)ethyl)-4-oxo-4,5-dihydro-3H-1-thia-3,5,8-triazaacenaphthylene-2-carboxamide]
6.1	Cc1cc(Oc2cccnc2)ccc1N1C(=O)Nc2c(C(=O)N[C@@H]3CCCN(C)C3)sc3nccc1c23 [Example 293, (R)-5-(2-Methyl-4-(pyridin-3-yloxy)phenyl)-N-(1-methylpiperidin-3-yl)-4-oxo-4,5-dihydro-3H-1-thia-3,5,8-triazaacenaphthylene-2-carboxamide]
